What was measured:
[1] = molecular target: T1, Human Dopamine D2L receptor (Homo sapiens, UniProt P14416); test: Radioligand binding experiment for dopamine D2 receptor (hD2), [3H]Spiperone; conditions: membranes of D2L receptor-transfected CHO cells, read-out: pIC50 D2 (converted)
T1 construct: expressed in transfected cells; host or cells: CHO cells
Protocol: (§1) The interaction of the compounds of Formula (I) with dopamine-receptors, h5HT-transporter and h5HT1A receptor was assessed in in vitro radioligand binding experiments. In general, a low concentration of a radioligand with a high binding affinity for a particular receptor or transporter is incubated with a sample of a tissue preparation enriched in a particular receptor or transporter or with a preparation of cells expressing cloned human receptors in a buffered medium. During the incubation, the radioligand binds to the receptor or transporter. When equilibrium of binding is reached, the receptor bound radioactivity is separated from the non-bound radioactivity, and the receptor- or transporter-bound activity is counted The interaction of the test compounds with the receptor is assessed in competition binding experiments. Various concentrations of the test compound are added to the incubation mixture containing the receptor- or transporter preparation and the radioligand. The test compound in proportion to its binding affinity and its concentration inhibits binding of the radioligand.
Human Dopamine D2L receptor-transfected CHO cells were collected by scraping into ice-cold Tris-HCl buffer ([…], pH 7.4). The suspension was centrifuged (23 500×g, 10 min, 4° C.) and pellets stored at −70° C. until require. They were then thawed and briefly homogenised using an Ultra-Turrax T25 homogeniser prior to dilution to an appropriate protein concentration optimised for specific and non-specific binding. [^3H]Spiperone (NEN, specific activity˜70 Ci/mmol) was diluted in Tris-HCl assay buffer containing NaCl, CaCl2, MgCl2, KCI (50, 120, 2, 1, and 5 mM respectively, adjusted to pH 7.7 with HCl) at a concentration of 2 nmol/L. Prepared radioligand (50 μl) was then incubated (30 min, 37° C.) with membrane preparations pre-diluted to an appropriate protein concentration (400 μl), and with 50 μl of either the 10% DMSO control, Butaclamol (10^−6 mol/L final concentration), or compound of interest. Membrane-bound activity was detected by filtration through a Packard Filtermate harvester onto Unifilterplates, washing with ice-old Tris-HCl buffer (50 mM; pH8.0; 3×4 ml). Filters were allowed to dry before adding scintillation fluid and counting in a Topcount scintillation counter. % Specific bound and competition binding curves were calculated using S-Plus software (Insightful).

[2] = molecular target: T2, human 5HT transporter (Homo sapiens, UniProt P31645); test: Binding experiment for 5-HT transporter, [3H]Paroxetine; conditions: 5HT transporter-transfected HEK cells, [3H]Paroxetine binding; read-out: pIC50 5HT reuptake inhibition (converted)
T2 construct: host or cells: HEK cells
T2 sequence (P31645 whole entry): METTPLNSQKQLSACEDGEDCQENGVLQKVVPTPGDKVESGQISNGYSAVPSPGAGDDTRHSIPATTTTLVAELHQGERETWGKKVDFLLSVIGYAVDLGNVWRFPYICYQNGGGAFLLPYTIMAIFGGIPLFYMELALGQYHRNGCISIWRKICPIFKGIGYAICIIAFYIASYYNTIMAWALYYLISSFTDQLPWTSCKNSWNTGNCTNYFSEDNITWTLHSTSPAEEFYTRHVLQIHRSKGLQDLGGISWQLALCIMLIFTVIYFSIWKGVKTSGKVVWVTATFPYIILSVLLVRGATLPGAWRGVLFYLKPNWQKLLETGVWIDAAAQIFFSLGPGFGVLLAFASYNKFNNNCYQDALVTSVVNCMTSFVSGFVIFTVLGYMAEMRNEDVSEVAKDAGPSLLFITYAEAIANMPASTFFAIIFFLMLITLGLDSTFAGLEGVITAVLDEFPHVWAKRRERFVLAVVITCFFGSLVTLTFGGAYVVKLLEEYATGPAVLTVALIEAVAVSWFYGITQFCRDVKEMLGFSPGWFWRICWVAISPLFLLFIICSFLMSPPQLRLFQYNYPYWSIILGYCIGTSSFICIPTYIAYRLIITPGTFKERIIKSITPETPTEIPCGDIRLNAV
Protocol: as §1
Frozen human 5HT transporter-transfected HEK cells (Perkin Elmer, Brussels) were thawed and briefly homogenised using an Ultra-Turrax T25 homogeniser prior to dilution to an appropriate protein concentration optimised for specific and non-specific binding. [^3H]Paroxetine (NEN, specific activity 20 Ci/mmol) was diluted in Tris-HCl assay buffer containing NaCl and KCl (50 mM 120 mM and 5 mM, respectively; pH 7.4) at a concentration of 5 nmol/L. Prepared radioligand (25 μl) was then incubated (60 min, 25° C.) with membrane preparations (200 μl) and with 25 μl of either 10% DMSO control, Imipramine (10^−6 mol/L final concentration), or compound of interest Membrane-bound activity was detected by filtration through a Packard Filtermate harvester onto Unifilterplates pre-soaked in 0.1% PEI, washing with ice-cold assay buffer (3×4 ml). Filters were dried prior to addition of scintillation fluid and then counting in a Topcount scintillation counter. % Specific bound and competition binding curves were calculated using S-Plus software (Insightful).

[3] = molecular target: T3, Human 5HT1A receptor (Homo sapiens, UniProt P08908); test: Binding experiment for 5-HT1A receptor, [3H]8OHDPAT; conditions: membranes of 5HT1A receptor-transfected L929 cells, read-out: pIC50 5HT1A (converted)
T3 construct: expressed in transfected cells; host or cells: L929 cells (stably transfected)
T3 sequence (P08908 1-422): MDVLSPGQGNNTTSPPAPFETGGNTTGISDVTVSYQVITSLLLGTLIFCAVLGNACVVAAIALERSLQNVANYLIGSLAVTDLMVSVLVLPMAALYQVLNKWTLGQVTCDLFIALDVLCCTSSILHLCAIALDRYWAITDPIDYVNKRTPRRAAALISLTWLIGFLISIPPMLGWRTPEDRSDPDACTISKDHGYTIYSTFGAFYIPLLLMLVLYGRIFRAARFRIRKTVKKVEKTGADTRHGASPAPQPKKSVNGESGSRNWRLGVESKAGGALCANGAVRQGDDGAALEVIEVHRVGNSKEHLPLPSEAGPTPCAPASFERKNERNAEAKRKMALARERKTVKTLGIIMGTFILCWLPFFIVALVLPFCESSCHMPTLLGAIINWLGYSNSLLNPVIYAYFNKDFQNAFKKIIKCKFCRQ
Protocol: as §1
Human 5HT1A receptor-transfected L929 cells were collected by scraping into ice-cold Tris-HCl buffer (50 mM, pH 7.4). The suspension was centrifuged (23 500×g, 10 min, 4° C.) and pellets stored at −70° C. until required. They were then thawed and briefly homogenised using an Ultra-Turrax T25 homogeniser prior to dilution to an appropriate protein concentration optimised for specific and non-specific binding. [^3H]8OHDPAT (NEN, specific activity 127 Ci/mmol) was diluted in Tris-HCl assay buffer containing CaCl2 (50 mM and 4 mM, respectively; pH 7.7) at a concentration of 5 nmol/L. Prepared radioligand (50 μl) was then incubated (30 min, 37° C.) with membrane preparations from L929 cells stably-transfected with the h5HT1A gene construct (400 μl) and with 50 μl of either the 10% DMSO control, spiroxatrine (10^−6 mol/L final concentration), or compound of interest. Membrane-bound activity was detected by filtration through a Packard Filtermate harvester onto Unifaltemplates, washing with ice-cold Tris-HCI buffer (3×4 ml), followed by drying. Scintillation fluid was added and membranes were counted in a Topcount scintillation counter. % Specific bound and competition binding curves were calculated using S-Plus software (Insightful).

[4] = molecular target: T4, Human Dopamine D3 receptor (Homo sapiens, UniProt P35462); test: Radioligand binding experiment for dopamine D3 receptor (hD3), [125I]Iodosulpride; conditions: membranes of D3 receptor-transfected CHO cells, read-out: pIC50 D3 (converted)
T4 construct: expressed in transfected cells; host or cells: CHO cells
T4 sequence (P35462 whole entry): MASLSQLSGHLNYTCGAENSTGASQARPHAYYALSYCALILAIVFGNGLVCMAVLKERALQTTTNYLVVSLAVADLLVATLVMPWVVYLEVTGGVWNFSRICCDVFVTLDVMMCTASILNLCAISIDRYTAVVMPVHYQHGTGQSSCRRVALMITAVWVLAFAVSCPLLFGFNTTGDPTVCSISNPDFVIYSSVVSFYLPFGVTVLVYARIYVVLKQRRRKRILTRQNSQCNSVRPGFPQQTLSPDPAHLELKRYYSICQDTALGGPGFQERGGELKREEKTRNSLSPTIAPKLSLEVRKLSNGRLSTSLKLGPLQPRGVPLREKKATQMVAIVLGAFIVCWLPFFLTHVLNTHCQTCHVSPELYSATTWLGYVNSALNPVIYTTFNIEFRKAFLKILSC
Protocol: as §1
Human Dopamine D3 receptor-transfected CHO cells were collected by scraping into ice-cold Tris-HCl buffer (50 mM, pH 7.4). The suspension was centrifuged (23 500×g, 10 min, 4° C.) and pellets stored at −70° C. until required. They were then thawed and briefly homogenised using an Ultra-Turrax T25 homogeniser prior to dilution to an appropriate protein concentration optimised for specific and non-specific binding. [^125]Iodosulpride (Amersham, specific activity 2000 Ci/mmol) was diluted in Tris-HCl assay buffer containing NaCl, CaCl2, MgCl2, KCl and BSA (50, 120, 2, 1, 5 mM, 0.1% respectively, adjusted to pH 7.7 with HCl) at a concentration of 2 nmol/L. Prepared radioligand (20 μl) was incubated (60 min, RT) and with 20 μl of either the 10% DMSO control, Risperidone (10^−6 mol/L final concentration), or compound of interest, then with membrane preparations (80 μl). Overnight incubation followed after addition of WGA-coated PVT SPA beads (250 μl; Amersham) and membrane-bound counts measured in a Wallac Microbeta. % Specific bound and competition binding curves were calculated using S-Plus software (Insightful).

T1 sequence (P14416 whole entry): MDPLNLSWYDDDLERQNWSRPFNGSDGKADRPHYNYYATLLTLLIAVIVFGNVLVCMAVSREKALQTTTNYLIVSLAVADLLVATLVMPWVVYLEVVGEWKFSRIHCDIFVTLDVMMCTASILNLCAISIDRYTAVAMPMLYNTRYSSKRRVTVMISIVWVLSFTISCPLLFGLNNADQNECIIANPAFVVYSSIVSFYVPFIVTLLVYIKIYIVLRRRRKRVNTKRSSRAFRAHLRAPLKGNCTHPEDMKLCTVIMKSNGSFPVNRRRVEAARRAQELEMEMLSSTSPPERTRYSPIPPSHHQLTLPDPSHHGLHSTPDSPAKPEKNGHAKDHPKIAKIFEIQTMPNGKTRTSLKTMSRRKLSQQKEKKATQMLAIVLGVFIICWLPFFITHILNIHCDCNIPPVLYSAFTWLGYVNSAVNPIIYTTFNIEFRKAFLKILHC

Work on `O=[N+]([O-])c1ccc2[nH]cc(C3=CCN(CC4COc5ccncc5O4)CC3)c2c1` (racemic) [Compound 14] yielded an IC50 [1] of 100 nM, an IC50 [2] of 100 nM and an IC50 [3] of 200 nM.
Work on `N#Cc1ccc2[nH]cc(C3CCN(CC4COc5ccncc5O4)CC3)c2c1` (racemic) [Compound 20] yielded an IC50 [1] of 63.1 nM and an IC50 [2] of 39.8 nM.
Work on `O=[N+]([O-])c1ccc2[nH]cc(C3=CCN(CC4COc5ccncc5O4)CC3)c2c1` (single isomer, unassigned) [Compound 15] yielded an IC50 [1] of 200 nM and an IC50 [2] of 10 nM.
`O=[N+]([O-])c1ccc2[nH]cc(C3=CCN(CC4COc5ccncc5O4)CC3)c2c1` (single isomer, unassigned) [Compound 16] gave an IC50 [1] of 316 nM and an IC50 [2] of 251 nM.
Work on `N#Cc1ccc2[nH]cc(C3CCN(CC4COc5ccncc5O4)CC3)c2c1` (single isomer, unassigned) [Compound 21] yielded an IC50 [1] of 79.4 nM, an IC50 [2] of 20 nM and an IC50 [3] of 31.6 nM.
For `N#Cc1ccc2[nH]cc(C3CCN(CC4COc5ccncc5O4)CC3)c2c1` (single isomer, unassigned) [Compound 22], the IC50 [1] was 794 nM, the IC50 [2] was 501 nM and the IC50 [3] was 10 nM.
With `CN1CC(CN2CC=C(c3c[nH]c4ccc(F)cc34)CC2)Oc2ncccc21` (stereo not drawn) [Compound 1] the IC50 [4] was 79.4 nM, the IC50 [1] was 200 nM and the IC50 [2] was 15.8 nM. It also gave an IC50 [3] of 12.6 nM.
In the case of `CN1CC(CN2CCC(c3c[nH]c4ccc(F)cc34)CC2)Oc2ncccc21` (stereo not drawn) [Compound 2], the IC50 [4] is reported as 100 nM, the IC50 [1] is reported as 398 nM and the IC50 [2] is reported as 316 nM. For the same molecule, the IC50 [3] was 15.8 nM.
With `CN1CC(CNCCCc2c[nH]c3ccc(F)cc23)Oc2ncccc21` (stereo not drawn) [Compound 3] the IC50 [4] was 398 nM, the IC50 [1] was > 1000 nM and the IC50 [2] was 200 nM. It also gave an IC50 [3] of 3.16 nM.
Molecule `Fc1ccc2[nH]cc(C3CCN(CC4COc5ccncc5O4)CC3)c2c1` (stereo not drawn) [Compound 5] has an IC50 [4] of 6.31 nM, an IC50 [1] of 79.4 nM and an IC50 [2] of 126 nM. The IC50 [3] was 39.8 nM.
In the case of `Fc1ccc2[nH]cc(CCCNCC3COc4ccncc4O3)c2c1` (stereo not drawn) [Compound 6], the IC50 [4] is reported as 31.6 nM, the IC50 [1] is reported as 200 nM and the IC50 [2] is reported as 316 nM. The IC50 [3] was 6.31 nM.
With `Fc1ccc2[nH]cc(CCCNCC3Oc4cccnc4O3)c2c1` (stereo not drawn) [Compound 9] the IC50 [4] was 251 nM, the IC50 [1] was > 1000 nM and the IC50 [2] was 501 nM. It also gave an IC50 [3] of 31.6 nM.
Work on `Fc1ccc2[nH]cc(CCCNCC3COc4cccnc4O3)c2c1` (stereo not drawn) [Compound 11] yielded an IC50 [4] of 398 nM, an IC50 [1] of 158 nM and an IC50 [2] of 316 nM. It also gave an IC50 [3] of 1.26 nM.
`Fc1cccc2[nH]cc(C3=CCN(CC4COc5ccncc5O4)CC3)c12` (stereo not drawn) [Compound 12] was tested, and the IC50 [4] was 158 nM and the IC50 [2] was 100 nM.
For `Brc1ccc2[nH]cc(C3=CCN(CC4COc5ccncc5O4)CC3)c2c1` (stereo not drawn) [Compound 13], the IC50 [1] was 158 nM and the IC50 [2] was 100 nM.
With `Fc1cccc2c(C3=CCN(CC4COc5ccncc5O4)CC3)c[nH]c12` (stereo not drawn) [Compound 17] the IC50 [1] was 126 nM and the IC50 [2] was 50.1 nM.
With `Clc1ccc2[nH]cc(C3CCN(CC4COc5ccncc5O4)CC3)c2c1` (stereo not drawn) [Compound 18] the IC50 [1] was 31.6 nM and the IC50 [2] was 200 nM.
With `Oc1ccc2[nH]cc(C3CCN(CC4COc5ccncc5O4)CC3)c2c1` (stereo not drawn) [Compound 19] the IC50 [1] was 63.1 nM and the IC50 [2] was 316 nM.
`Fc1ccc2c(C3CCN(CC4COc5ccncc5O4)CC3)c[nH]c2c1` (stereo not drawn) [Compound 23] was tested, and the IC50 [1] was 25.1 nM and the IC50 [2] was 251 nM.
Work on `Fc1cccc2c(C3CCN(CC4COc5ccncc5O4)CC3)c[nH]c12` (stereo not drawn) [Compound 24] yielded an IC50 [1] of 25.1 nM and an IC50 [2] of 316 nM.
In the case of `Fc1ccc2[nH]cc(CC3CCN(CC4COc5ccncc5O4)CC3)c2c1` (stereo not drawn) [Compound 25], the IC50 [1] is reported as 794 nM and the IC50 [2] is reported as 63.1 nM.
Molecule `Fc1ccc2[nH]cc(C3=CCN(CC4COc5cccnc5O4)CC3)c2c1` (stereo not drawn) [I, reference compound] has an IC50 [4] of 501 nM, an IC50 [1] of 251 nM and an IC50 [2] of 200 nM. It also gave an IC50 [3] of 126 nM.

From patent publication US20070066608A1, “Novel indole derivatives with an improved antipsychotic activity” (priority 2003, published 2007)
